Each structure is given as a SMILES string. Where a name gives a salt, the structure may show the parent alone.

The target in the assay is T1, Human BACE (Homo sapiens, UniProt P56817).
T1 construct: Recombinant BACE (extracellular domain, expressed in baculovirus and purified using standard methods); made in house
Briefly: Test 1: Inhibition of Human BACE. The class given is biochemical. Conditions: Test 1; recombinant BACE extracellular domain, acetate buffer pH 4.5, 1 hour incubation at room temperature, fluorescence-quenched APP-derived peptide substrate; read-out: Bace IC50. The protocol:
Test 1: Inhibition of Human BACE
Recombinant BACE (extracellular domain, expressed in baculovirus and purified using standard methods) at 0.1 to 10 nM concentrations is incubated with the test compound at various concentrations for 1 hour at room temperature in 10 to 100 mM acetate buffer, pH 4.5, containing 0.1% CHAPS. […] IC50 values are calculated from percentage of inhibition of BACE-activity as a function of the test compound concentration.

T1 sequence (P56817 46-457 limits assumed): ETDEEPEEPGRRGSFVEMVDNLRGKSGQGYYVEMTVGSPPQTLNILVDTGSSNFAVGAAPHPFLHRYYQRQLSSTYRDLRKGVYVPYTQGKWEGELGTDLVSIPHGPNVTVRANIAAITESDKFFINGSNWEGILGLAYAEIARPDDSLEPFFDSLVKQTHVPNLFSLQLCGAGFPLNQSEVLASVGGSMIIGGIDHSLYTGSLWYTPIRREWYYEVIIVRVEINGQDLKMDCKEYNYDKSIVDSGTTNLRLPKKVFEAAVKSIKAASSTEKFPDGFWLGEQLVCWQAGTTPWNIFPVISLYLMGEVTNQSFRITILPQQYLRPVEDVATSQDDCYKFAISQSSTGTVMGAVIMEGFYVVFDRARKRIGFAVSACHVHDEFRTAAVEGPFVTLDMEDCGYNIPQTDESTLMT

One may read the IC50 as the concentration that inhibits the measured activity by half. As for `CC(C)(C)c1cccc(CN[C@H]2CS(=O)(=O)C[C@@H](Cc3cc(F)c(N)c(O[C@H](CN)C(F)(F)F)c3)[C@@H]2O)c1` [Example 39, (3S,4S,5R)-3-[4-Amino-3-((R)-1-aminomethyl-2,2,2-trifluoro-ethoxy)-5-fluoro-benzyl]-5-(3-tert-butyl-benzylamino)-1,1-dioxo-hexahydro-1lambda*6*-thiopyran-4-ol], the concentration for half-maximal inhibition (IC50) is 71 nM.

Take `COC[C@@H](Oc1cc(C[C@@H]2C[S@@+]([O-])C[C@H](NCc3ccc4c(c3)OC(C)(C)C4)[C@H]2O)cc(F)c1N)C(F)(F)F` [Example 50, (1R,3S,4S,5R)-3-[4-Amino-3-fluoro-5-((R)-2,2,2-trifluoro-1-methoxymethyl-ethoxy)-benzyl]-5-[(2,2-dimethyl-2,3-dihydro-benzofuran-6-ylmethyl)-amino]-1-oxo-tetrahydro-thiopyran-4-ol dihydrochloride]: the IC50 came to 2400 nM.

On to `COC[C@@H](Oc1cc(C[C@@H]2C[S@@+]([O-])C[C@H](NCc3cccc(C(C)(C)C(F)(F)F)c3)[C@H]2O)cc(F)c1N)C(F)(F)F` [Example 44, (1R,3S,4S,5R)-3-[4-Amino-3-fluoro-5-((R)-2,2,2-trifluoro-1-methoxymethyl-ethoxy)-benzyl]-1-oxo-5-[3-(2,2,2-trifluoro-1,1-dimethyl-ethyl)-benzylamino]-tetrahydro-thiopyran-4-ol], for which the IC50 stood at 27 nM.

For `CC(C)(C)c1cccc(CNC2CS(=O)(=O)CC(Cc3ccc(N)c(C(=O)NCC4CC4)c3)C2O)c1` (stereo not drawn) [Example 21], the IC50 is 8 nM.

For `CNCC(=O)Nc1c(F)cc(C[C@@H]2CS(=O)(=O)C[C@H](NCc3cccc(C(C)(C)C)c3)[C@H]2O)cc1Cl` [Example 13], the 50% inhibitory concentration (IC50) came to 28 nM.

In the case of `CC(C)(C)c1cccc(CN[C@H]2CS(=O)(=O)C[C@@H](Cc3cc(F)c(NC(=O)CN4CCCCC4)c(Cl)c3)[C@@H]2O)c1` [Example 16], the IC50 was found to be 34 nM.

Turning to `CCCNC(=O)c1cc(CC2CS(=O)(=O)CC(NCc3cccc(C(C)(C)C)c3)C2O)ccc1N` (stereo not drawn) [Example 20], the IC50 was found to be 151 nM.

For the compound `COC[C@@H](Oc1cc(C[C@@H]2C[S+]([O-])C[C@H](NCc3cccc(C4(C)CC4)c3)[C@H]2O)cc(F)c1N)C(F)(F)F` (stereo partly drawn) [Example 43, (3S,4S,5R)-3-[4-Amino-3-fluoro-5-((R)-2,2,2-trifluoro-1-methoxymethyl-ethoxy)-benzyl]-5-[3-(1-methyl-cyclopropyl)-benzylamino]-1-oxo-hexahydro-1lambda*4*-thiopyran-4-ol hydrochloride], the IC50 is 10 nM.

In the case of `CC(C)(C)c1cccc(CN[C@H]2CS(=O)(=O)C[C@@H](Cc3cc(F)c(NCCNC4CC4)c(Cl)c3)[C@@H]2O)c1` [Example 17, (3R,4S,5S)-3-(3-tert-Butyl-benzylamino)-5-[3-chloro-4-(2-cyclopropyl-amino-ethylamino)-5-fluoro-benzyl]-1,1-dioxo-hexahydro-1lambda*6*-thiopyran-4-ol hydrochloride], the IC50 was 1760 nM.

For `COC[C@@H](Oc1cc(C[C@@H]2CSC[C@H](NCc3cccc(C(C)(C)C)c3)[C@H]2O)cc(F)c1N)C(F)(F)F` [Example 40, (3S,4S,5R)-3-[4-Amino-3-fluoro-5-((R)-2,2,2-trifluoro-1-methoxymethyl-ethoxy)-benzyl]-5-(3-tert-butyl-benzylamino)-tetrahydro-thiopyran-4-ol hydrochloride], the IC50 came to 247 nM.

Consider `CC(C)(C)NCC(=O)Nc1c(F)cc(C[C@@H]2CS(=O)(=O)C[C@H](NCc3cccc(C(C)(C)C)c3)[C@H]2O)cc1Cl` [Example 15], for which the concentration for half-maximal inhibition (IC50) worked out at 50 nM.

Regarding `CN(C)CC(=O)Nc1c(F)cc(C[C@@H]2CS(=O)(=O)C[C@H](NCc3cccc(C(C)(C)C)c3)[C@H]2O)cc1Cl` [Example 11, N-{4-[(3S,4S,5R)-5-(3-tert-Butyl-benzylamino)-4-hydroxy-1,1-dioxo-hexa-hydro-1lambda*6*-thiopyran-3-ylmethyl]-2-chloro-6-fluoro-phenyl}-2-dimethylamino-acetamide dihydrochloride], the IC50 is 74 nM.

The record behind these values is patent publication US8093406B2, “Cyclic sulfones with aminobenzyl substitution useful as BACE inhibitors” (Novartis AG, priority 2008, dated 2012).
